Results on three compounds are retold here after ChEMBL document CHEMBL3769303, “Discovery of membrane active benzimidazole quinolones-based topoisomerase inhibitors as potential DNA-binding antimicrobial agents” (Eur J Med Chem, 2016).

Values after ≈ are worked out from the molar mass of the structure shown.

For the first experiment, the system named is Pseudomonas aeruginosa. The experiment can be described thus: Antibacterial activity against Pseudomonas aeruginosa ATCC 27853 by micro broth dilution method. It is filed as functional.
Details: not given
In general terms: Dilution methods test growth across graded concentrations, often in twofold steps.
As usually defined, the MIC is the lowest concentration found to suppress growth. Higher therefore signals weaker potency. Turning to `O=C(O)c1cn(C2CC2)c2cc(N3CCN(Cc4nc5ccccc5[nH]4)CC3)c(F)cc2c1=O`, 0.5 µg/mL (≈ 1.08 µM) was the least that counted as inhibitory (MIC).

As to `CCn1cc(C(=O)O)c(=O)c2cc(F)c(N3CCN(Cc4nc5ccccc5n4Cc4ccc([N+](=O)[O-])cc4)CC3)cc21`, the MIC was 4 µg/mL (≈ 6.84 µM).

Consider `CCCCCn1c(CN2CCN(c3cc4c(cc3F)c(=O)c(C(=O)O)cn4CC)CC2)nc2ccccc21`, for which it took 64 µg/mL (≈ 123 µM) to inhibit growth (MIC).

In a further experiment the test system is Cyberlindnera jadinii. The experiment can be described thus: Antifungal activity against Candida utilis ATCC 9950 after 24 hrs by micro broth dilution method. The format is functional. The conditions noted are these: Williopsis jadinii, ATCC 9950, 24 h.
For orientation: MIC80 means the lowest concentration that inhibits either 80% of growth or 80% of the strains tested, depending on the study. As for `O=C(O)c1cn(C2CC2)c2cc(N3CCN(Cc4nc5ccccc5[nH]4)CC3)c(F)cc2c1=O`, the MIC80 is 0.125 µg/mL (≈ 0.271 µM).

In turn, `CCn1cc(C(=O)O)c(=O)c2cc(F)c(N3CCN(Cc4nc5ccccc5n4Cc4ccc([N+](=O)[O-])cc4)CC3)cc21` registered an MIC80 of 4 µg/mL (≈ 6.84 µM).

Regarding `CCCCCn1c(CN2CCN(c3cc4c(cc3F)c(=O)c(C(=O)O)cn4CC)CC2)nc2ccccc21`, the MIC80 came out at 32 µg/mL (≈ 61.6 µM).

In a further experiment the test system is Staphylococcus aureus. Nature of the experiment: Antibacterial activity against Staphylococcus aureus ATCC 25923 by micro broth dilution method.
Details: not given
It is filed as functional.
As for `O=C(O)c1cn(C2CC2)c2cc(N3CCN(Cc4nc5ccccc5[nH]4)CC3)c(F)cc2c1=O`, it took 0.25 µg/mL (≈ 0.542 µM) to inhibit growth (MIC).

For `CCn1cc(C(=O)O)c(=O)c2cc(F)c(N3CCN(Cc4nc5ccccc5n4Cc4ccc([N+](=O)[O-])cc4)CC3)cc21`, inhibition of growth (MIC) required 4 µg/mL (≈ 6.84 µM).

For `CCCCCn1c(CN2CCN(c3cc4c(cc3F)c(=O)c(C(=O)O)cn4CC)CC2)nc2ccccc21`, the MIC stood at 512 µg/mL (≈ 985 µM).

The next experiment deals with Aspergillus flavus. The experiment can be described thus: Antifungal activity against Aspergillus flavus ATCC 204304 after 24 hrs by micro broth dilution method. It is filed as functional. To be noted: ATCC 204304, 24 h.
On to `O=C(O)c1cn(C2CC2)c2cc(N3CCN(Cc4nc5ccccc5[nH]4)CC3)c(F)cc2c1=O`, for which the MIC80 amounted to 0.5 µg/mL (≈ 1.08 µM).

`CCn1cc(C(=O)O)c(=O)c2cc(F)c(N3CCN(Cc4nc5ccccc5n4Cc4ccc([N+](=O)[O-])cc4)CC3)cc21`: the MIC80 was 8 µg/mL (≈ 13.7 µM).

Compound `CCCCCn1c(CN2CCN(c3cc4c(cc3F)c(=O)c(C(=O)O)cn4CC)CC2)nc2ccccc21` gave an MIC80 of 64 µg/mL (≈ 123 µM). Against the preceding compound, the MIC80 is about 8-fold higher.

System in a further experiment: not listed separately
Nature of the experiment: Antibacterial activity against Bacillus proteus ATCC 13315 by micro broth dilution method. It is filed as functional.
Details: not given
`O=C(O)c1cn(C2CC2)c2cc(N3CCN(Cc4nc5ccccc5[nH]4)CC3)c(F)cc2c1=O`: the MIC is 0.125 µg/mL (≈ 0.271 µM).

In turn, `CCn1cc(C(=O)O)c(=O)c2cc(F)c(N3CCN(Cc4nc5ccccc5n4Cc4ccc([N+](=O)[O-])cc4)CC3)cc21` showed an MIC of 16 µg/mL (≈ 27.4 µM).

In turn, `CCCCCn1c(CN2CCN(c3cc4c(cc3F)c(=O)c(C(=O)O)cn4CC)CC2)nc2ccccc21` gave a minimum inhibitory concentration (MIC) of 8 µg/mL (≈ 15.4 µM).

Another experiment relates to Saccharomyces cerevisiae. Nature of the experiment: Antifungal activity against Saccharomyces cerevisiae ATCC 9763 after 24 hrs by micro broth dilution method. The conditions noted are these: ATCC 9763, 24 h. The format is functional.
In turn, `O=C(O)c1cn(C2CC2)c2cc(N3CCN(Cc4nc5ccccc5[nH]4)CC3)c(F)cc2c1=O` yielded an MIC80 of 0.0625 µg/mL (≈ 0.135 µM).

For the compound `CCn1cc(C(=O)O)c(=O)c2cc(F)c(N3CCN(Cc4nc5ccccc5n4Cc4ccc([N+](=O)[O-])cc4)CC3)cc21`, the MIC80 turned out to be 4 µg/mL (≈ 6.84 µM). This MIC80 lies about 64-fold higher than the previous one.

For the compound `CCCCCn1c(CN2CCN(c3cc4c(cc3F)c(=O)c(C(=O)O)cn4CC)CC2)nc2ccccc21`, the MIC80 was found to be 64 µg/mL (≈ 123 µM).

For the next experiment, the system named is Escherichia coli. The experiment can be described thus: Antibacterial activity against Escherichia coli JM109 by micro broth dilution method. The format is functional.
Details: not given
Turning to `O=C(O)c1cn(C2CC2)c2cc(N3CCN(Cc4nc5ccccc5[nH]4)CC3)c(F)cc2c1=O`, the minimum inhibitory concentration (MIC) turned out to be 0.5 µg/mL (≈ 1.08 µM).

Regarding `CCn1cc(C(=O)O)c(=O)c2cc(F)c(N3CCN(Cc4nc5ccccc5n4Cc4ccc([N+](=O)[O-])cc4)CC3)cc21`, the MIC amounted to 8 µg/mL (≈ 13.7 µM).

As for `CCCCCn1c(CN2CCN(c3cc4c(cc3F)c(=O)c(C(=O)O)cn4CC)CC2)nc2ccccc21`, the MIC came out at 128 µg/mL (≈ 246 µM).

The test system of a further experiment is Candida albicans. Nature of the experiment: Antifungal activity against Candida albicans ATCC 10231 after 24 hrs by micro broth dilution method. It is filed as functional. To be noted: ATCC 10231, 24 h.
With `O=C(O)c1cn(C2CC2)c2cc(N3CCN(Cc4nc5ccccc5[nH]4)CC3)c(F)cc2c1=O`, the MIC80 is 0.0625 µg/mL (≈ 0.135 µM).

`CCn1cc(C(=O)O)c(=O)c2cc(F)c(N3CCN(Cc4nc5ccccc5n4Cc4ccc([N+](=O)[O-])cc4)CC3)cc21` had an MIC80 of 4 µg/mL (≈ 6.84 µM).

The compound `CCCCCn1c(CN2CCN(c3cc4c(cc3F)c(=O)c(C(=O)O)cn4CC)CC2)nc2ccccc21` came in with an MIC80 of 4 µg/mL (≈ 7.7 µM).

A further experiment deals with Escherichia coli. The experiment can be described thus: Antibacterial activity against Escherichia coli DH52 by micro broth dilution method.
Details: not given
It is filed as functional.
As for `O=C(O)c1cn(C2CC2)c2cc(N3CCN(Cc4nc5ccccc5[nH]4)CC3)c(F)cc2c1=O`, the minimum inhibitory concentration (MIC) stood at 0.125 µg/mL (≈ 0.271 µM).

Regarding `CCn1cc(C(=O)O)c(=O)c2cc(F)c(N3CCN(Cc4nc5ccccc5n4Cc4ccc([N+](=O)[O-])cc4)CC3)cc21`, the minimum inhibitory concentration (MIC) was determined as 16 µg/mL (≈ 27.4 µM).

Turning to `CCCCCn1c(CN2CCN(c3cc4c(cc3F)c(=O)c(C(=O)O)cn4CC)CC2)nc2ccccc21`, the MIC is 8 µg/mL (≈ 15.4 µM).

A further experiment relates to Salmonella enterica. The experiment can be described thus: Antibacterial activity against Salmonella enterica ATCC 14028 by micro broth dilution method. The format is functional.
Details: not given
`O=C(O)c1cn(C2CC2)c2cc(N3CCN(Cc4nc5ccccc5[nH]4)CC3)c(F)cc2c1=O` returned a minimum inhibitory concentration (MIC) of 0.125 µg/mL (≈ 0.271 µM).

`CCn1cc(C(=O)O)c(=O)c2cc(F)c(N3CCN(Cc4nc5ccccc5n4Cc4ccc([N+](=O)[O-])cc4)CC3)cc21` returned a minimal inhibitory concentration (MIC) of 4 µg/mL (≈ 6.84 µM).

Take `CCCCCn1c(CN2CCN(c3cc4c(cc3F)c(=O)c(C(=O)O)cn4CC)CC2)nc2ccccc21`: the MIC turned out to be 256 µg/mL (≈ 493 µM).

The subject of another experiment is Bacillus spizizenii. Nature of the experiment: Antibacterial activity against Bacillus subtilis ATCC 6633 by micro broth dilution method. It is filed as functional.
Details: not given
Take `O=C(O)c1cn(C2CC2)c2cc(N3CCN(Cc4nc5ccccc5[nH]4)CC3)c(F)cc2c1=O`: the lowest concentration to inhibit growth (MIC) was 0.125 µg/mL (≈ 0.271 µM).

With `CCn1cc(C(=O)O)c(=O)c2cc(F)c(N3CCN(Cc4nc5ccccc5n4Cc4ccc([N+](=O)[O-])cc4)CC3)cc21`, the lowest concentration to inhibit growth (MIC) was 2 µg/mL (≈ 3.42 µM). Compared with the last compound, the MIC is about 16-fold higher.

`CCCCCn1c(CN2CCN(c3cc4c(cc3F)c(=O)c(C(=O)O)cn4CC)CC2)nc2ccccc21` registered an MIC of 32 µg/mL (≈ 61.6 µM).

For another experiment, the system named is Micrococcus luteus. The experiment can be described thus: Antibacterial activity against Micrococcus luteus ATCC 4698 by micro broth dilution method. It is filed as functional. To be noted: NCTC 2665.
For `O=C(O)c1cn(C2CC2)c2cc(N3CCN(Cc4nc5ccccc5[nH]4)CC3)c(F)cc2c1=O`, the MIC came out at 0.125 µg/mL (≈ 0.271 µM).

In turn, `CCn1cc(C(=O)O)c(=O)c2cc(F)c(N3CCN(Cc4nc5ccccc5n4Cc4ccc([N+](=O)[O-])cc4)CC3)cc21` displayed an MIC of 4 µg/mL (≈ 6.84 µM).

The compound `CCCCCn1c(CN2CCN(c3cc4c(cc3F)c(=O)c(C(=O)O)cn4CC)CC2)nc2ccccc21` yielded an MIC of 16 µg/mL (≈ 30.8 µM).

System in a further experiment: not listed separately
The experiment can be described thus: Antifungal activity against Candida mycoderma ATCC 9888 after 24 hrs by micro broth dilution method. It is filed as functional. To be noted: Candida vini.
For the compound `O=C(O)c1cn(C2CC2)c2cc(N3CCN(Cc4nc5ccccc5[nH]4)CC3)c(F)cc2c1=O`, the MIC80 came out at 0.125 µg/mL (≈ 0.271 µM).

In turn, `CCn1cc(C(=O)O)c(=O)c2cc(F)c(N3CCN(Cc4nc5ccccc5n4Cc4ccc([N+](=O)[O-])cc4)CC3)cc21` showed an MIC80 of 16 µg/mL (≈ 27.4 µM).

On to `CCCCCn1c(CN2CCN(c3cc4c(cc3F)c(=O)c(C(=O)O)cn4CC)CC2)nc2ccccc21`, for which the MIC80 is 8 µg/mL (≈ 15.4 µM).

The next experiment relates to Shigella dysenteriae. Nature of the experiment: Antibacterial activity against Shigella dysenteriae by micro broth dilution method. It is filed as functional.
Details: not given
`O=C(O)c1cn(C2CC2)c2cc(N3CCN(Cc4nc5ccccc5[nH]4)CC3)c(F)cc2c1=O` registered an MIC of 1 µg/mL (≈ 2.17 µM).

In turn, `CCn1cc(C(=O)O)c(=O)c2cc(F)c(N3CCN(Cc4nc5ccccc5n4Cc4ccc([N+](=O)[O-])cc4)CC3)cc21` had an MIC of 4 µg/mL (≈ 6.84 µM).

Regarding `CCCCCn1c(CN2CCN(c3cc4c(cc3F)c(=O)c(C(=O)O)cn4CC)CC2)nc2ccccc21`, it took 128 µg/mL (≈ 246 µM) to inhibit growth (MIC).

Another experiment has as its system Staphylococcus aureus. Nature of the experiment: Antibacterial activity against methicillin-resistant Staphylococcus aureus N315 by micro broth dilution method. The format is functional.
Details: not given
`O=C(O)c1cn(C2CC2)c2cc(N3CCN(Cc4nc5ccccc5[nH]4)CC3)c(F)cc2c1=O` came in with an MIC of 0.125 µg/mL (≈ 0.271 µM).

Take `CCn1cc(C(=O)O)c(=O)c2cc(F)c(N3CCN(Cc4nc5ccccc5n4Cc4ccc([N+](=O)[O-])cc4)CC3)cc21`: the lowest concentration to inhibit growth (MIC) was 8 µg/mL (≈ 13.7 µM).

In the case of `CCCCCn1c(CN2CCN(c3cc4c(cc3F)c(=O)c(C(=O)O)cn4CC)CC2)nc2ccccc21`, the MIC was 64 µg/mL (≈ 123 µM). Against the preceding compound, the MIC is about 8-fold higher.
